Laboratory results as given in US10294202B2, “Pyrrolidinones as herbicides” (FMC Corporation, priority 2013, dated 2019).

Tests used:
barnyardgrass [1] = test: Test A pre-/postemergence herbicide test; assay type: in vivo, Echinochloa crus-galli
Outline: (§1)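 Planted in loam–sand blend; treated the same day preemergence by directed soil spray, while separately grown plants at one- to two-leaf stage got postemergence spray. Compared visually with untreated controls after approximately 10 days; 100 means complete control.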

kochia = test: Test A pre-/postemergence herbicide test; assay type: in vivo, Kochia scoparia; conditions: for Plant response rating, Kochia: 0 to 100 scale
Outline: as §1

ragweed = test: Test A pre-/postemergence herbicide test; assay type: in vivo, Ambrosia elatior; conditions: for Plant response rating, Ragweed: 0 to 100 scale
Outline: as §1

ryegrass, Italian = test: Test A pre-/postemergence herbicide test; assay type: in vivo, Lolium multiflorum; conditions: for Plant response rating, Ryegrass, Italian: 0 to 100 scale
Outline: as §1

giant foxtail = test: Test A pre-/postemergence herbicide test; assay type: in vivo, Setaria faberii; conditions: for Plant response rating, Foxtail, Giant: 0 to 100 scale
Outline: as §1

pigweed = test: Test A pre-/postemergence herbicide test; assay type: in vivo, Amaranthus retroflexus; conditions: for Plant response rating, Pigweed: 0 to 100 scale
Outline: as §1

wheat = test: Test A pre-/postemergence herbicide test; assay type: in vivo, Triticum aestivum; conditions: Postemergence
Outline: as §1

corn = test: Test A pre-/postemergence herbicide test; assay type: in vivo, Zea mays; conditions: Postemergence
Outline: as §1

blackgrass = test: Test A postemergence herbicide test; assay type: in vivo, Alopecurus myosuroides
Outline: (§2)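 Blackgrass and galium grown in pots of loam soil–sand blend, treated postemergence at 2–10 cm height, one- to two-leaf stage. Plants kept in greenhouse ~10 days, then visually rated for injury against untreated controls on a 0–100 scale (0 no effect, 100 complete control).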

galium = test: Test A postemergence herbicide test; assay type: in vivo, Galium aparine
Outline: as §2

rice = test: Test C flooded paddy test; assay type: in vivo, Oryza sativa; conditions: Flood
Outline: (§3)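 Plants at the 2-leaf stage in pots flooded to 3 cm were treated by applying compound directly to the paddy water, with depth held throughout. After 13 to 15 days in a greenhouse, response was rated visually against controls on a 0 (no effect) to 100 (complete control) scale.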

sedge, umbrella = test: Test C flooded paddy test; assay type: in vivo, Cyperus difformis; conditions: Flood
Outline: as §3

ducksalad = test: Test C flooded paddy test; assay type: in vivo, Heteranthera limosa; conditions: Flood
Outline: as §3

barnyardgrass [2] = test: Test C flooded paddy test; assay type: in vivo, Echinochloa crus-galli; conditions: Flood
Outline: as §3

[3] = Preemergence, 125 g ai/ha, visual rating on 0 to 100 scale (0 no effect, 100 complete control)
[4] = Postemergence, 125 g ai/ha, 0 no effect, 100 complete control
[5] = 125 g ai/ha, 0 to 100 scale, 0 no effect, 100 complete control
[6] = 500 g ai/ha, 0 to 100 scale (0 no effect, 100 complete control)
[7] = 125 g ai/ha, scale of 0 to 100 where 0 is no effect and 100 is complete control, 13 to 15 days

O=C1NCC(c2cccc(C(F)(F)F)c2)C1C(=O)Nc1nnc(C(F)(F)F)s1 (racemic) [Compound 112]
0: Plant response rating, Barnyardgrass (barnyardgrass [1]; Postemergence, 125 g ai/ha, 0 to 100 scale, 0 no effect, 100 complete control) | Plant response rating, Barnyardgrass (barnyardgrass [1]; Postemergence, 500 g ai/ha, 0 to 100 scale (0 no effect, 100 complete control)) | Barnyardgrass plant response rating (barnyardgrass [1]; [3]) | Plant response rating, Barnyardgrass (barnyardgrass [1]; preemergence, 500 g ai/ha, 0 to 100 scale (0 no effect, 100 complete control)) | Plant response rating, Kochia (kochia; [4]) | Kochia plant response rating (0 to 100 scale, 0 is no effect, 100 is complete control) (kochia; Postemergence, 500 g ai/ha) | Kochia plant response rating (kochia; [3]) | Plant response rating, Kochia (kochia; preemergence, 500 g ai/ha) | Plant response rating, Ragweed (ragweed; [4]) | Ragweed plant response rating (0 to 100 scale, 0 is no effect, 100 is complete control) (ragweed; Postemergence, 500 g ai/ha) | Ragweed plant response rating (ragweed; [3]) | Plant response rating, Ragweed (ragweed; preemergence, 500 g ai/ha) | Plant response rating, Ryegrass, Italian (ryegrass, Italian; [4]) | Ryegrass, Italian plant response rating (0 to 100 scale, 0 is no effect, 100 is complete control) (ryegrass, Italian; Postemergence, 500 g ai/ha) | Ryegrass, Italian plant response rating (ryegrass, Italian; [3]) | Plant response rating, Ryegrass, Italian (ryegrass, Italian; preemergence, 500 g ai/ha) | Plant response rating, Foxtail, Giant (giant foxtail; [4]) | Foxtail, Giant plant response rating (0 to 100 scale, 0 is no effect, 100 is complete control) (giant foxtail; Postemergence, 500 g ai/ha) | Foxtail, Giant plant response rating (giant foxtail; [3]) | Plant response rating, Foxtail, Giant (giant foxtail; preemergence, 500 g ai/ha) | Plant response rating, Pigweed (pigweed; [4]) | Pigweed plant response rating (0 to 100 scale, 0 is no effect, 100 is complete control) (pigweed; Postemergence, 500 g ai/ha) | Pigweed plant response rating (pigweed; [3]) | Plant response rating, Pigweed (pigweed; preemergence, 500 g ai/ha) | Plant response rating, Wheat (wheat; [5]) | Wheat plant response rating (0 to 100 scale, 0 is no effect, 100 is complete control) (wheat; 500 g ai/ha) | Plant response rating, Corn (corn; [5]) | Plant response rating, Corn (corn; [6]) | Plant response rating, Blackgrass (blackgrass; [5]) | Plant response rating, Blackgrass (blackgrass; [6]) | Plant response rating, Galium (galium; [5]) | Galium plant response rating (0 to 100 scale, 0 is no effect, 100 is complete control) (galium; 500 g ai/ha) | Plant response rating, Rice (rice; [7]) | Plant response rating, Rice (rice; 250 g ai/ha, scale 0 to 100) | Plant response rating, Rice (rice; 500 g ai/ha, scale 0 to 100) | Plant response rating, Rice (rice; 1000 g ai/ha, scale 0 to 100) | Plant response rating, Sedge, Umbrella (sedge, umbrella; [7]) | Plant response rating, Sedge, Umbrella (sedge, umbrella; 250 g ai/ha, scale 0 to 100) | Plant response rating, Sedge, Umbrella (sedge, umbrella; 500 g ai/ha, scale 0 to 100) | Plant response rating, Sedge, Umbrella (sedge, umbrella; 1000 g ai/ha, scale 0 to 100) | Plant response rating, Ducksalad (ducksalad; [7]) | Plant response rating, Ducksalad (ducksalad; 250 g ai/ha, scale 0 to 100) | Plant response rating, Ducksalad (ducksalad; 500 g ai/ha, scale 0 to 100) | Plant response rating, Ducksalad (ducksalad; 1000 g ai/ha, scale 0 to 100) | Plant response rating, Barnyardgrass (barnyardgrass [2]; [7]) | Plant response rating, Barnyardgrass (barnyardgrass [2]; 250 g ai/ha, scale 0 to 100) | Plant response rating, Barnyardgrass (barnyardgrass [2]; 500 g ai/ha, scale 0 to 100) | Plant response rating, Barnyardgrass (barnyardgrass [2]; 1000 g ai/ha, scale 0 to 100)
